Reference: PubChem BioAssay (NCI)
Where “and” joins values, the source holds several entries; their conditions need not be identical. Equal values may be shown once.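 How tested: cells in 96-well plates exposed to compound for 48 hours at five concentrations. GI50 marks 50% less growth. TGI marks complete inhibition of growth.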

How the values were obtained:
Assay in all cases: DTP human tumour cell line panel, 48 h
SK-MEL-5 melanoma = system: SK-MEL-5 melanoma
HS 578T breast = system: HS 578T breast
UO-31 renal = system: UO-31 renal
OVCAR-8 ovarian = system: OVCAR-8 ovarian
UACC-257 melanoma = system: UACC-257 melanoma
NCI-H460 lung = system: NCI-H460 lung
KM12 colon = system: KM12 colon
SN12C renal = system: SN12C renal
MDA-MB-231 breast = system: MDA-MB-231 breast
SNB-19 CNS = system: SNB-19 CNS

| Compound | GI50 (SK-MEL-5 melanoma) | TGI (SK-MEL-5 melanoma) | GI50 (HS 578T breast) | TGI (HS 578T breast) | GI50 (UO-31 renal) | TGI (UO-31 renal) | GI50 (OVCAR-8 ovarian) | TGI (OVCAR-8 ovarian) | GI50 (UACC-257 melanoma) | TGI (UACC-257 melanoma) | GI50 (NCI-H460 lung) | TGI (NCI-H460 lung) | GI50 (KM12 colon) | TGI (KM12 colon) | GI50 (SN12C renal) | TGI (SN12C renal) | GI50 (MDA-MB-231 breast) | TGI (MDA-MB-231 breast) | GI50 (SNB-19 CNS) | TGI (SNB-19 CNS) |
| --- | --- | --- | --- | --- | --- | --- | --- | --- | --- | --- | --- | --- | --- | --- | --- | --- | --- | --- | --- | --- |
| C=CCCC(O)c1ccc(CCCCCCCCCCC)o1 (stereo unspecified) | 17 µM | 31.5 µM | 12.6 µM | 30.2 µM | 20.9 µM | 36.1 µM | 18.3 µM | 35.6 µM | 18.6 µM | 33.9 µM | 28.9 µM | > 100 µM | 20.6 µM | 51 µM | 15.6 µM | 29 µM | 12.6 µM | 26.2 µM | 18.8 µM | 35 µM |
| CN1CCN(CCCN2c3ccccc3Sc3ccc(C(F)(F)F)cc32)CC1 | 1.65 µM | 3.04 µM and 4.34 µM and 6.17 µM | 2.22 µM | 8.41 µM and 14.7 µM and 20.6 µM | 2.31 µM | 12 µM and 19.3 µM and 17.6 µM | 1.7 µM | 3.36 µM and 33.4 µM and 30.5 µM |  | 3.73 µM and 3.75 µM and 6.55 µM | 1.99 µM | 4.15 µM and 5.21 µM and 12.1 µM | 1.85 µM | 3.48 µM and 10.7 µM and 11.4 µM | 2.6 µM | 12.8 µM and 22.2 µM and 26.1 µM | 1.75 µM and 6.11 µM and 1.7 µM | 3.87 µM and 19.9 µM and 5.08 µM | 1.86 µM | 4.45 µM and 26.8 µM and 29.3 µM |
| O=[N+]([O-])c1ccc(NN=C2c3ccccc3Cc3ccccc32)c([N+](=O)[O-])c1 |  | > 100 µM |  | > 80.4 µM |  | > 100 µM |  | > 100 µM |  | > 100 µM |  | > 100 µM |  | 79.9 µM |  | > 100 µM |  | > 100 µM |  | > 100 µM |
| O=C1c2ccccc2CCC1(Br)Br | 2.32 µM | 5.87 µM | 4.08 µM | > 26.9 µM | 1.27 µM | 2.6 µM | 2.36 µM | 6.04 µM | 1.88 µM | 4.98 µM | 5.28 µM | 18.7 µM | 4.34 µM | 15 µM | 2.18 µM | 5.37 µM | 1.97 µM | 4.72 µM | 10.4 µM | 23.2 µM |
| Cc1[nH]c2ccccc2c1C1=CC(=O)C=CC1=O | 12 µM | 25.3 µM | 8.86 µM | 53.3 µM | 10.5 µM | 23.2 µM | 13.2 µM | 34.9 µM | 14.3 µM | 28.6 µM | 15.5 µM | 42.2 µM | 12.2 µM | 25.5 µM | 14.4 µM | 32 µM | 12.9 µM | 29.2 µM | 16.6 µM | 41.6 µM |
| CNC(=O)c1c(NC(=O)c2ccc(C(C)C)cc2)sc2c1CCC(=O)C2 | 0.605 µM | 1.7 µM | 0.357 µM | 2.34 µM | 0.26 µM | 1.1 µM | 0.338 µM | 2.38 µM | 2.05 µM | 6.35 µM | 0.58 µM | 2.82 µM | 0.404 µM | 1.69 µM | 0.603 µM | 2.38 µM | 0.394 µM | 1.71 µM | 0.453 µM | 5.71 µM |
| COc1ccc(NC(=O)CC(=O)n2nc(-c3ccccc3)c(N=Nc3ccccc3C)c2-c2ccccc2)cc1 |  | > 86.5 µM |  | 35.6 µM |  | > 92 µM |  | 66 µM |  | > 100 µM |  | 53.5 µM |  | > 100 µM |  | > 88.5 µM |  | > 100 µM |  | > 69.7 µM |
| CC(C)NCCCCCNc1cc(O)cc2cccnc12 | 98.1 µM | > 100 µM | > 42.5 µM | > 100 µM | 85.2 µM | > 100 µM | > 100 µM | > 100 µM | 17.7 µM | > 75.1 µM | > 100 µM | > 100 µM | > 100 µM | > 100 µM | > 100 µM | > 100 µM | 4.78 µM | > 100 µM | > 100 µM | > 100 µM |
| Cc1ccc2nc(CC(=O)c3ccc4ccccc4c3)c(=O)[nH]c2c1 |  | > 100 µM |  | > 100 µM |  | > 100 µM |  | > 100 µM |  | > 100 µM |  | > 100 µM |  | > 100 µM |  | > 100 µM |  | > 100 µM |  | > 100 µM |
| O=C(NCc1cccs1)OC1CC2CCC1C2 (stereo unspecified) |  | > 100 µM |  | > 100 µM |  | > 100 µM |  | > 100 µM |  | > 100 µM |  | > 100 µM |  | > 100 µM |  | > 100 µM |  | > 100 µM |  | > 100 µM |
| Cc1cccc2c1NC(=O)C2(c1ccc(O)cc1)c1ccc(O)cc1 | 15.9 µM | 33.2 µM | < 0.01 µM | < 0.0192 µM | 13.1 µM | 78.8 µM | < 0.0192 µM | 13.7 µM | 18.4 µM | 49.2 µM | 18.5 µM | 40.8 µM | 3.68 µM | 23.6 µM | < 0.01 µM | 15.4 µM | 13.3 µM | 33.3 µM | 28.5 µM | > 100 µM |
| O=C(O)C1CCCCC1C(=O)Nc1nc2ccccc2[nH]1 (stereo unspecified) |  | > 100 µM |  | > 100 µM |  | > 100 µM |  | > 100 µM |  | > 100 µM |  | > 100 µM |  | > 100 µM |  | > 100 µM |  | > 100 µM |  | > 100 µM |
| O=C(c1ccncc1)N1CCN(C2=NS(=O)(=O)c3ccccc3N2c2ccccc2)CC1 | 11.6 µM | 24.1 µM | 29.3 µM | 81 µM | 36.4 µM | > 100 µM | 27.7 µM | > 100 µM | 21.7 µM | 63.8 µM | 2.59 µM | > 100 µM | 29.2 µM | > 100 µM | 7.55 µM | > 100 µM | 30.7 µM | 75.2 µM | 15 µM | 44.9 µM |
| CC(=O)Nc1ccc(S(=O)(=O)c2ccc(NC(C)=O)cc2)cc1 | > 100 µM | > 100 µM | > 100 µM | > 100 µM | > 100 µM | > 100 µM | > 100 µM | > 100 µM | > 100 µM | > 100 µM | > 100 µM | > 100 µM | > 100 µM | > 100 µM | > 100 µM | > 100 µM | > 100 µM | > 100 µM |  |  |
| Nc1nc(Cl)nc2c1ncn2C1CCC(COP(=O)(O)OP(=O)(O)OP(=O)(O)O)O1 (stereo unspecified) |  |  |  | > 100 µM |  | 48.2 µM |  | 51.9 µM |  | > 100 µM |  | > 100 µM |  | > 100 µM |  | > 100 µM |  | > 100 µM |  | > 100 µM |
| C/C=C(\C)C(=O)OC1C2C(C)C(=O)OC2C(O)C(C)C2C=CC(=O)C21C (stereo unspecified) |  | 21.4 µM |  | > 64.7 µM |  | 32.8 µM |  | 34.8 µM |  | 30.2 µM |  | 20.6 µM |  | 30.3 µM |  | 43.1 µM |  | 13.7 µM |  | 26.3 µM |
